The target of data set [1] is T1, Leucine-rich repeat serine/threonine-protein kinase 2 (Homo sapiens, UniProt Q5S007). Kind of data set: Inhibition of recombinant human LRRK2 WT using fluorescein-labeled LRRKtide as substrate in presence of ATP preincubated for 50 mins followed by anti-phospho-LRRKtide antibody addition and measured after 30 mins by TR-FRET based Lanthascreen kinase activity assay. Background: TR-FRET usually uses a lanthanide donor and a delayed reading to cut background.

Data set [2] in a line: Drug uptake in Mdr1a/ 1b-BCRP knockout C57BL/6 mouse brain at 5 mg/kg, sc and measured after 0.5 hrs. It counts as ADME, organism-based. The note with it: read-out: Drug uptake.
Data set [3] addresses Mitogen-activated protein kinase kinase kinase 1 (Homo sapiens, UniProt Q13233). Kind of data set: Inhibition of MAP3K1 expressed in human PBMCs measured by KiNativ profiling analysis.
Data set [4] is described as follows: Drug uptake in Mdr1a/ 1b-BCRP knockout C57BL/6 mouse plasma at 5 mg/kg, sc and measured after 0.5 hrs. The data set is classed as ADME, organism-based.
A short description of data set [5]: Ratio of unbound drug level in Md1a deficient C57BL/6 mouse brain to plasma at 5 mg/kg, sc and measured after 0.5 hrs. It counts as ADME, organism-based.
Data set [6] can be described thus: Drug uptake in P-gp la-deficient C57BL/6 mouse brain at 5 mg/kg, sc and measured after 0.5 hrs. The data set is classed as ADME, organism-based. Particulars: read-out: Drug uptake.
In data set [7] the target is Receptor-type tyrosine-protein kinase FLT3 (Homo sapiens, UniProt P36888, D835V/ITD). Kind of data set: Binding affinity to human FLT3 ITD, D835V (V592/Y969) mutant expressed in mammalian system assessed as dissociation constant measured at 1 uM by DiscoveRx KINOMEscan assay.
The nature of data set [8]: Ratio of unbound drug level in C57BL/6 WT mouse brain to plasma at 5 mg/kg, sc and measured after 0.5 hrs. It counts as ADME, organism-based. Particulars: C57BL/6, mouse.
In data set [9] the target is T1, Leucine-rich repeat serine/threonine-protein kinase 2. Kind of data set: Inhibition of LRRK2 WT expressed in human PBMCs measured by KiNativ profiling analysis.
A short description of data set [10]: Ratio of drug level in Mdr1A deficient C57BL/6 mouse brain to plasma at 5 mg/kg, sc and measured after 0.5 hrs. It counts as ADME, organism-based.
The species entered for a further data set is Homo sapiens. Put plainly: Inhibition of human PIP5K2C (M1/A421) WT expressed in mammalian system assessed as remaining activity measured at 1 uM by DiscoveRx KINOMEscan assay relative to control.
Data set [11] is described as follows: Mutagenecity in Salmonella enterica subsp. enterica serovar Typhimurium by Ames test. The data set is classed as toxicity. On the technique in general: The Ames test detects mutagens through reverse mutation in bacteria.
Data set [12] in a line: Half life in steady state in Beagle dog plasma at 1 mg/kg, IV […]. The data set is classed as ADME, organism-based, Canis lupus familiaris.
Data set [13] can be described thus: Ratio of drug level in C57BL/6 WT mouse brain to plasma at 5 mg/kg, sc and measured after 0.5 hrs. The data set is classed as ADME, organism-based. Particulars: for Kp at 0.5 h: C57BL/6, mouse, brain and plasma.
A short description of data set [14]: Drug uptake in mdrla-deficient C57BL/6 mouse plasma at 5 mg/kg, sc and measured after 0.5 hrs. The data set is classed as ADME, organism-based.
Data set [15] deals with Phosphatidylinositol 4-kinase beta (Homo sapiens, UniProt Q9UBF8). Kind of data set: Binding affinity to human PIK4CB (M1/M828) WT expressed in mammalian system assessed as dissociation constant measured at 1 uM by DiscoveRx KINOMEscan assay.
A short description of data set [16]: Drug uptake in C57BL/6 WT mouse brain at 5 mg/kg, sc and measured after 0.5 hrs. The data set is classed as ADME, organism-based. The note with it: C57BL/6, mouse, read-out: Drug uptake.
The nature of data set [17]: Ratio of unbound drug level in C57BL/6 WT mouse brain to plasma measured at 5 mg/kg, sc and measured after 1 hrs. The data set is classed as ADME, organism-based. The note with it: C57BL/6, mouse.
Data set [18] can be described thus: Drug uptake in Mdr1a deficient C57BL/6 mouse plasma at 5 mg/kg, sc and measured after 1 hrs. The data set is classed as ADME, organism-based.
Data set [19] in a line: Ratio of drug level in Mdr1A deficient C57BL/6 mouse brain to plasma at 5 mg/kg, sc and measured after 1 hrs. It counts as ADME, organism-based.
Data set [20] in a line: Drug uptake in C57BL/6 WT mouse plasma at 5 mg/kg, sc and measured after 1 hrs. The data set is classed as ADME, organism-based. The note with it: C57BL/6, mouse.
A short description of data set [21]: Drug uptake in C57BL/6 WT mouse brain at 5 mg/kg, sc and measured after 1 hrs. It counts as ADME, organism-based. Particulars: C57BL/6, mouse, read-out: Drug uptake.
The nature of data set [22]: Drug uptake in Mdr1a deficient C57BL/6 mouse brain at 5 mg/kg, sc and measured after 1 hrs. The data set is classed as ADME, organism-based. The note with it: read-out: Drug uptake.
A short description of data set [23]: Ratio of drug level in C57BL/6 WT mouse brain to plasma at 5 mg/kg, sc and measured after 1 hrs. The data set is classed as ADME, organism-based. The note with it: C57BL/6, mouse.
A short description of data set [24]: Drug uptake in C57BL/6 WT mouse plasma at 5 mg/kg, sc and measured after 0.5 hrs. The data set is classed as ADME, organism-based. Particulars: C57BL/6, mouse.
Data set [25] in a line: Ratio of unbound drug level in Md1a deficient C57BL/6 mouse brain to plasma at 5 mg/kg, sc and measured after 1 hrs. It counts as ADME, organism-based.

Here are results for two compounds from ChEMBL document CHEMBL5038598, “Design and Synthesis of Pyrrolo[2,3-d]pyrimidine-Derived Leucine-Rich Repeat Kinase 2 (LRRK2) Inhibitors Using a Checkpoint Kinase 1 (CHK1)-Derived Crystallographic Surrogate” (J Med Chem, 2021).

T1 sequence (Q5S007 whole entry): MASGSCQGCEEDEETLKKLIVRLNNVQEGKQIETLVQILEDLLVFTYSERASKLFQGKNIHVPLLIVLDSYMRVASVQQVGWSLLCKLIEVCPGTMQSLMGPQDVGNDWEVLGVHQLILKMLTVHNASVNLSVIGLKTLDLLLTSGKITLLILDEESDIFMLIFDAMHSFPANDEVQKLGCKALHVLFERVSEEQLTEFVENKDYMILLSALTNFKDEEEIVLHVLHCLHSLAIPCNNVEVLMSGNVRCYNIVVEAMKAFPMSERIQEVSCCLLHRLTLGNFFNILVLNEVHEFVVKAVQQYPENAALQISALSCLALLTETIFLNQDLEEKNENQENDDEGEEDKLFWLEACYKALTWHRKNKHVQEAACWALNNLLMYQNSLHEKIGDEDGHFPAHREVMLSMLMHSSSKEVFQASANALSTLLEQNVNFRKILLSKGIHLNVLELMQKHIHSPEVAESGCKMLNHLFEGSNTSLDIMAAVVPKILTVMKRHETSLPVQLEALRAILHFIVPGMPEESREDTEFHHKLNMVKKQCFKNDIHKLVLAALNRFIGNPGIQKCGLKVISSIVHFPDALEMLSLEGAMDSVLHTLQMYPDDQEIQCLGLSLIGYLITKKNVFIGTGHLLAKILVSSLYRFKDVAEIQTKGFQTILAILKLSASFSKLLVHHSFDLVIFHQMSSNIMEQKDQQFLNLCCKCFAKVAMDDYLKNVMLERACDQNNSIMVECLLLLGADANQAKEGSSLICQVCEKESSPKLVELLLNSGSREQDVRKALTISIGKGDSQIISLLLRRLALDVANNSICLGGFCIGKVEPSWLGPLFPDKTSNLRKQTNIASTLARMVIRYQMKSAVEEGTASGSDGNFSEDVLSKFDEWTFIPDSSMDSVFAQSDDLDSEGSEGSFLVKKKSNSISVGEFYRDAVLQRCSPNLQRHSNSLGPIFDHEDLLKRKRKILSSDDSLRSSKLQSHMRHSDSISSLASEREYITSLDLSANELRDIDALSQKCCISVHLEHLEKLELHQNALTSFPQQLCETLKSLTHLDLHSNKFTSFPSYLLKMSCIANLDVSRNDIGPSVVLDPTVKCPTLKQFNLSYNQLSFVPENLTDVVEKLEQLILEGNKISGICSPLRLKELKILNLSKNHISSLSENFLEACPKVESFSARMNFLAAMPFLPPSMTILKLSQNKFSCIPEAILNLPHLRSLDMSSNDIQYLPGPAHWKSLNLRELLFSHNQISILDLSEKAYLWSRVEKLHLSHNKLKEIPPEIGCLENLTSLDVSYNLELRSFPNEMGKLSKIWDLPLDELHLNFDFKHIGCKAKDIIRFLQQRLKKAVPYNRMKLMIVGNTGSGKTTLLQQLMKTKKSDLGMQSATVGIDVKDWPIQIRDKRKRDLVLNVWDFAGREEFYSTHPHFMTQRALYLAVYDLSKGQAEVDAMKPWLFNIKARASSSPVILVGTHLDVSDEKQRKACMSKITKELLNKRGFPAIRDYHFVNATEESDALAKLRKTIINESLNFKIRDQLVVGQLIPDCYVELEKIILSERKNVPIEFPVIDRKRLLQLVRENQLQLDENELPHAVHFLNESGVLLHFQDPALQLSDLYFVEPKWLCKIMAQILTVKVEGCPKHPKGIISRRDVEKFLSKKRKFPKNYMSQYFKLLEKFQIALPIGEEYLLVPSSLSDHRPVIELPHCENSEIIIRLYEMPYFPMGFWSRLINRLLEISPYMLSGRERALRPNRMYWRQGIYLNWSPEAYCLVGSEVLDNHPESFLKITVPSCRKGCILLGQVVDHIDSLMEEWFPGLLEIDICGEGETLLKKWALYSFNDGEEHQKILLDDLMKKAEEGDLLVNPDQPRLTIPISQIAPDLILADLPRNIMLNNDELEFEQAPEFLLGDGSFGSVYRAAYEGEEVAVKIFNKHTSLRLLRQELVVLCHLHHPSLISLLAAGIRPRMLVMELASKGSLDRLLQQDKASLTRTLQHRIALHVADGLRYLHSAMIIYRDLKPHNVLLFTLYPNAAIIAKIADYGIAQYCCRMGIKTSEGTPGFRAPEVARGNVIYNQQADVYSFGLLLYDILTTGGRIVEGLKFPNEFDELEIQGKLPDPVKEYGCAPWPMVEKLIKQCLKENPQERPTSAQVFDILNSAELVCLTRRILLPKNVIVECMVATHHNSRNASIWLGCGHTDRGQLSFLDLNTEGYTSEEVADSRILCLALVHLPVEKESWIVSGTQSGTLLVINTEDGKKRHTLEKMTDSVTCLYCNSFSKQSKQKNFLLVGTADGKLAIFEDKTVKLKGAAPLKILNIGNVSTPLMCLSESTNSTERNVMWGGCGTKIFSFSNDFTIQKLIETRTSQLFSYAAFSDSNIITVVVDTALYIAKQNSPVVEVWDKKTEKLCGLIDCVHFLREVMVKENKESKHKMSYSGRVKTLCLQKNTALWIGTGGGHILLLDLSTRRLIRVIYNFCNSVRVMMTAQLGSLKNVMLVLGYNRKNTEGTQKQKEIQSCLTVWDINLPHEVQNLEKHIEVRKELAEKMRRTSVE
Sequence of Phosphatidylinositol 4-kinase beta (Q9UBF8 whole entry): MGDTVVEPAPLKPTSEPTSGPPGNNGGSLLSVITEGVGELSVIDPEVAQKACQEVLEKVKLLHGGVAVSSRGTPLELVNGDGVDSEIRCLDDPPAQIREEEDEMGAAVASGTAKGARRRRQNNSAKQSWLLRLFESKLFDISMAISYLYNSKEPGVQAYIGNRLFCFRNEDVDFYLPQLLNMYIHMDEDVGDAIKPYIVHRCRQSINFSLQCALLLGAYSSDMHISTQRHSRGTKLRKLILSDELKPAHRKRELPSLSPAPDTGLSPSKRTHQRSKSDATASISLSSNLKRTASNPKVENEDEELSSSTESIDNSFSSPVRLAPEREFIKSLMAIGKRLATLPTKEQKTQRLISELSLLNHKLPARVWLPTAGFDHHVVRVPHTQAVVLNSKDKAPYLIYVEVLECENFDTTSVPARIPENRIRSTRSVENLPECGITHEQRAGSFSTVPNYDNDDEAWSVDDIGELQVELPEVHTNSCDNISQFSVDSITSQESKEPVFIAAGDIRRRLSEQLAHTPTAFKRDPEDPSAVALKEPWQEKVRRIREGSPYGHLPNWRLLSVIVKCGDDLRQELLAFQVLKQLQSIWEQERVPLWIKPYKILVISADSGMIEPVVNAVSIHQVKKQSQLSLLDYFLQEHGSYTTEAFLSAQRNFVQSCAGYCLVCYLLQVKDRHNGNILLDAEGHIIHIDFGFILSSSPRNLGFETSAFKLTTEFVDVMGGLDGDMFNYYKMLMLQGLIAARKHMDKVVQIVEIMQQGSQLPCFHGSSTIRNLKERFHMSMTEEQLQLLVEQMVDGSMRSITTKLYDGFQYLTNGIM
Sequence of Mitogen-activated protein kinase kinase kinase 1 (Q13233 whole entry): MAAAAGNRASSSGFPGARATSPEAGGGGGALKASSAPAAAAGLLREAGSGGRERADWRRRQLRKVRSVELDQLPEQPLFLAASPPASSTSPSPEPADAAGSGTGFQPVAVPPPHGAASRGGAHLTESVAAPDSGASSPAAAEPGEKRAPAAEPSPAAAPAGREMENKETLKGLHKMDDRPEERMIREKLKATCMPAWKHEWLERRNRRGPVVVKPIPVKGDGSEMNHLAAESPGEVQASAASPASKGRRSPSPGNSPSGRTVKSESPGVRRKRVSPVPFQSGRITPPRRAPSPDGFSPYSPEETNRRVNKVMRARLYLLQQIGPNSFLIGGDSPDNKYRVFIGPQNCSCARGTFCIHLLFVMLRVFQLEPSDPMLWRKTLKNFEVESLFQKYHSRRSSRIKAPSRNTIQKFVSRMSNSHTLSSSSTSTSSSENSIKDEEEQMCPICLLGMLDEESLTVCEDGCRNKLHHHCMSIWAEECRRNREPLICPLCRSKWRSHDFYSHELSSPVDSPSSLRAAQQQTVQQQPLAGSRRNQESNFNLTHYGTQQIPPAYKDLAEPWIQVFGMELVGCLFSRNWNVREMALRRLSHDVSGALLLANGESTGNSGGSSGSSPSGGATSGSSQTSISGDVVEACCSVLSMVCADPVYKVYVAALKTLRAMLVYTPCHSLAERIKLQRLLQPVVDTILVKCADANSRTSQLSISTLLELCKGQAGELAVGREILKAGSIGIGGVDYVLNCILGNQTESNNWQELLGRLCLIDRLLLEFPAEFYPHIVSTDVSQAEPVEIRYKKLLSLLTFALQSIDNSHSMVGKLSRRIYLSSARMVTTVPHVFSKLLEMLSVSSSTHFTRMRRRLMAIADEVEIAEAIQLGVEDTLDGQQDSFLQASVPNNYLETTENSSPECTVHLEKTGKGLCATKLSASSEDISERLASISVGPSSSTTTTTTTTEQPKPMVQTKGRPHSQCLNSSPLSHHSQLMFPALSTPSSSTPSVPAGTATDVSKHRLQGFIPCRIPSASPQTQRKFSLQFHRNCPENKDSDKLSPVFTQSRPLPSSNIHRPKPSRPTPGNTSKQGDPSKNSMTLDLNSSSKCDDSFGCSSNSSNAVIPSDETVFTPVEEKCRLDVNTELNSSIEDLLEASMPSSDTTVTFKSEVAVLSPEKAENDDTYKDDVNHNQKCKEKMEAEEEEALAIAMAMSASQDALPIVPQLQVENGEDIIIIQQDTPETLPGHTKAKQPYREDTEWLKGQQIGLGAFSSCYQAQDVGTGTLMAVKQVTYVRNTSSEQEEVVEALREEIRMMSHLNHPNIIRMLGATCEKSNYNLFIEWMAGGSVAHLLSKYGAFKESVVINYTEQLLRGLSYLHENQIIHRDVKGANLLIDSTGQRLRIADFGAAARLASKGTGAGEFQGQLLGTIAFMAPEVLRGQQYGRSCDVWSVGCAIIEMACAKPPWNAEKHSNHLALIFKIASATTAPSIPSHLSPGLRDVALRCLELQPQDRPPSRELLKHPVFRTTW

For orientation: IC50 means the concentration that inhibits the measured activity by half. One may read the Kd as a measure of binding affinity in units of concentration. A word on the Kp: it is the ratio of the level in a tissue or fluid to that in plasma or blood. As usually defined, the half-life is the time needed for the level to fall by half in the phase considered. High values mean slow decline, low ones rapid decline. In the case of `Cc1c(Nc2nc(N)c3c(C#N)c(N4CCC[C@H]4C)n(C)c3n2)cnn1[C@@H]1CCOC1`, the IC50 in [1] came to 20 nM; in data set [3] it was 1100 nM; in [9], 67 nM. Further, the concentration at 0.5 h is 2060 ng/g in data set [2], 1960 ng/mL in data set [4], 256 ng/g in data set [6] and 2140 ng/mL in data set [14]. In addition, the figures for the Kp uu at 0.5 h in data set [5] and in data set [8] were 0.11 and 0.02, respectively. In addition, the dissociation constant Kd stood at 470 nM in data set [7] and 850 nM in data set [15]. Moreover, the Kp at 0.5 h was 0.31 in data set [10] and 0.06 in data set [13]. Besides, the Activity in the data set listed under Homo sapiens is less than 37%; in data set [11], “Non-Toxic”. In data set [12], this compound showed a half-life of 30 min. Further, the Ratio in data set [13] (mouse, brain, 5 mg/kg, 0.5 h) is on record as 0.07.
With `Cc1c(Nc2nc(N)c3c(C#N)c(N4CCC[C@H]4C)n(C)c3n2)cnn1[C@H]1CCOC1`, the concentration at 0.5 h turned out to be 73 ng/g in [16], 1080 ng/g in [2], 1600 ng/mL in [4] and 1610 ng/mL in data set [24]. The Kp uu at 1 h in data set [17] worked out at 0.014; in [25], 0.056. Further, the IC50 in data set [1] amounted to 23 nM; in data set [3] it was 840 nM; in [9], 86 nM. Moreover, the concentration at 1 h in data set [18] is 100 ng/mL; in data set [20] it was 440 ng/mL; in data set [21], 17 ng/g; in [22], 675 ng/g. For the same compound, the figures for the Kp at 1 h in [19] and in data set [23] were 0.15 and 0.04, respectively. The dissociation constant (Kd) in data set [7] was 67 nM; in data set [15] it was 730 nM. Besides, the Kp uu at 0.5 h in data set [8] was determined as 0.02. Further, the Activity in the data set listed under Homo sapiens is less than 37%; in data set [11] it was “Non-Toxic”. Besides, in [12], the half-life is 36 min. Moreover, the partition ratio (Kp) at 0.5 h in [13] is 0.15.
